Data from the CATMoS acute toxicity set (Mansouri et al. 2021).

Assay: GHS categories as the set defines them, by LD50: 1 up to 5, 2 up to 50, 3 up to 300, 4 up to 2000, 5 above 2000 mg/kg
Settings: rat; in vivo; po

Compound	GHS category
O=C(CC(=O)c1ccccc1)c1ccccc1	5
CCc1ccc(CC)cc1	5
Cc1ccc2ncc(C(=O)NC3CCCC3)c(=O)n2c1	3
Brc1c(Br)c(Br)c(OCCOc2c(Br)c(Br)c(Br)c(Br)c2Br)c(Br)c1Br	5
C[Si](C)(C)O[Si](C)(C)O[Si](C)(C)C	5
COc1cc([N+](=O)[O-])c(OC)cc1Cl	5
CCCCCCCCCCCC(=O)N(CCCC)CCCC	5
CCOP(=O)(OCC)c1ccccc1	4
CC1(C)C2CC[C@]3(C)C(CC=C4[C@H]5C[C@](C)(C(=O)O)CC[C@]5(C)CC[C@]43C)[C@@]2(C)CC[C@@H]1OC(=O)C=CC(=O)O (some centres undefined)	5
COC(=O)C1=C(C)NC(C)=C(C(=O)O)C1c1cc([N+](=O)[O-])ccc1F (centres undefined)	5
CCOC(C)(C)C	5
Nc1cc(Cl)nc(C(=O)O)c1Cl	5
CC1Oc2cc(C(=O)C=Cc3ccc(O)cc3)ccc2N(C)C1=O (centres undefined)	5
COc1ccc(C(=O)Nc2ccccc2)cc1N=Nc1c(O)c(C(=O)Nc2cc(Cl)ccc2OC)cc2ccccc12	5
CCOC(=O)c1c[nH]c2c(F)c(F)c(F)cc2c1=O	5
O=C(O)c1ccc(B(O)O)cc1	5
COC(=O)CCN[N+](C)(C)C	3
C=C(C)C(=O)OCCOCCOCCOCC	5
CC(C)(C)OOC(C)(C)CCC(C)(C)OOC(C)(C)C	5
C=CC(C)(CCC=C(C)C)OC(=O)c1ccccc1 (centres undefined)	5
CC(C)(CO)C1OCC2(CO1)COC(C(C)(C)CO)OC2 (centres undefined)	5
CCCc1nc2ncnn2c(CCC)c1Cc1ccc(-c2ccccc2-c2nn[nH]n2)cc1	4
COC(=O)C(O)(c1cccs1)c1cccs1	5

Compound	GHS category
COCCOC(=O)C(=O)Nc1nc(-c2ccccc2)cs1	5
CO/N=C(/C1=NOCCO1)c1ccccc1Oc1ncnc(Oc2ccccc2Cl)c1F	5
CCCCOC(=O)C(=O)[C@H]1[C@H](C)C[C@H]2[C@@H]3C[C@H](F)C4=CC(=O)C=C[C@]4(C)[C@H]3[C@@H](O)C[C@@]21C	5
COC(=O)c1ccc(C(=O)OC)c(N)c1	5
CCCCCCC(C(C)=O)C(=O)OCC (centres undefined)	5
CCOC(=O)C(=O)Nc1ccncn1	4
CCCCCCCC/C=C\CCCCCCCC(=O)N(CCCC)CCCC	5
COc1ccc(Cl)cc1N/C(=N/C1CCCCC1)c1ccccc1C	4
CC(C)CC(=O)O[C@@H]1C[C@@H]2CC[C@@]1(C)C2(C)C (racemic)	5
c1ccc(OCC2COC(Cn3cncn3)(c3cc4ccccc4o3)O2)cc1 (centres undefined)	4
COc1ccc2c(c1)CCN(c1ccccc1)C2c1ccc(O)cc1 (centres undefined)	4
CCCN(CCC)C(=O)C(CCC(=O)OCCOCCOC(=O)Cc1c(C)n(C(=O)c2ccc(Cl)cc2)c2ccc(OC)cc12)NC(=O)c1ccccc1 (centres undefined)	4
CO[Si](C)(C)CCl	4
C=CC(C)=CCC1OC1(C)C (centres undefined)	5
CCCCOC(=O)C(C)O (centres undefined)	5
CCOC(=O)C(F)C(C)=O (centres undefined)	3
O=c1[nH]c(=O)n([C@H]2C[C@H](O)[C@@H](CO)O2)cc1C(F)(F)F	5
CCCCCCCCCCCC(=O)OC1CC(C)(C)NC(C)(C)C1	5
CC(=O)N(C)C(=O)Oc1cccc2c1OC(C)(C)O2	4
OC1CCC2CCCCC2C1 (centres undefined)	5
O=C1OCCN1N=Cc1c(N2CCCCCC2)nc2ccccn2c1=O	4
CN1C(=O)C(O)N=C(c2ccccc2Cl)c2cc(Cl)ccc21 (centres undefined)	5
CN1C(CCl)Nc2cc(Cl)c(S(N)(=O)=O)cc2S1(=O)=O (centres undefined)	5

Compound	GHS category
Clc1ccccc1-c1nnc(-c2ccccc2Cl)nn1	5
CC(C)N1CCN(C(=O)c2ccc(OC(=O)C3CCCc4ccccc43)cc2)CC1 (centres undefined)	5
CCCCCCC(=O)OCC	5
CCOC(=O)C(=O)Nc1cc(SCCOCCOC)ncn1	4
CC(C)NP1(=S)OCc2cc([N+](=O)[O-])ccc2O1 (centres undefined)	3
COCc1cnc(C2=NC(C)(C(C)C)C(=O)N2)c(C(=O)O)c1 (centres undefined)	5
COc1ccc(C2NC(=O)C(C)S2)cc1 (centres undefined)	5
CC(C)=CCC[C@@](C)(O)[C@H]1CC=C(C)CC1	5
CC(C)(c1ccc(OP(=O)(Oc2ccccc2)Oc2ccccc2)cc1)c1ccc(OP(=O)(Oc2ccccc2)Oc2ccccc2)cc1	5
CC(C)=CCC(C#N)(CCN1CCCCC1)c1cccc2ccccc12 (centres undefined)	4
CCOC(=O)C(C)(C)NC(=O)c1cnc2cccc(C)n2c1=O	3
CCOC(=O)NC1CCCN(c2nc(N)c3cc(OC)c(OC)cc3n2)C1 (centres undefined)	4
CCN(C(=O)CCCSc1nnnn1C)C1CCCCC1O (centres undefined)	4
C=C(C)C(=O)OCCOC(=O)CC(C)=O	5
CCCCCCCCCCCC#N	5
Cc1ncc(CSSCc2cnc(C)c(O)c2CN)c(CN)c1O	5
CC(=O)Nc1ccc(/N=N/c2c(S(=O)(=O)O)cc3cc(NC(=O)Nc4ccc5c(O)c(/N=N/c6ccccc6)c(S(=O)(=O)O)cc5c4)ccc3c2O)cc1	5
COc1nc(Nc2ccccc2)nc(Nc2ccc(C=Cc3ccc(Nc4nc(Nc5ccccc5)nc(OC)n4)cc3S(=O)(=O)O)c(S(=O)(=O)O)c2)n1	5
Nc1cc(Br)c(O)c2c(O)c3c(N)cc(Br)c(O)c3c(O)c12	5
O=C1C=CC(=O)N1c1ccc(SSc2ccc(N3C(=O)C=CC3=O)cc2)cc1	5
CCCCCBr	5
CCCCCCC(=O)OC	5
O=C1CN=C(c2ccccc2Cl)c2cc([N+](=O)[O-])ccc2N1	5

Compound	GHS category
CCC(C)(O)CCCC(C)C (centres undefined)	5
C=C(C)CCO	5
CO[C@H]1C=CO[C@@]2(C)Oc3c(C)c(O)c4c(c3C2=O)C2=NC3(CCN(CC(C)C)CC3)NC2=C(NC(=O)C(C)=CC=C[C@H](C)[C@H](O)[C@@H](C)[C@@H](O)[C@@H](C)[C@H](OC(C)=O)[C@@H]1C)C4=O	5
FC(F)(F)OC(F)(Cl)C(F)(F)Cl (centres undefined)	5
CN1C(=O)CCC1=O	5
CC(C)CC1(C)OCC(CO)O1 (centres undefined)	5
CCO[Si](CCCCl)(OCC)OCC	5
CCN(C(=O)CCCSc1nnnn1C)c1ccccn1	4
CC1Oc2cc(C(=O)c3ccccc3)ccc2NC1=O (centres undefined)	5
CCCCCCCOC(C)=O	5
CC(C)(C)c1cc(Cc2cc(C(C)(C)C)c(O)c(C(C)(C)C)c2)cc(C(C)(C)C)c1O	5
COC(C)CCO (centres undefined)	5
CN1C(C(=O)Nc2ccccn2)=C(Nc2ccccn2)c2sc(Cl)cc2S1(=O)=O	2
Clc1ccc2oc(C3(Cn4cncn4)OCCCO3)cc2c1	4
CO[C@@]1(NC(=O)CSC[C@@H](N)C(=O)O)C(=O)N2C(C(=O)O)=C(CSc3nnnn3C)CS[C@@H]21	5
Cc1cc(C)c(S(=O)(=O)O)cc1N=Nc1cc(S(=O)(=O)O)c2ccccc2c1O	5
Cc1ccc(C(=O)COc2c(C(=O)c3ccc(Cl)c(C)c3Cl)c(C)nn2C)cc1	5
CO[C@@H]1[C@@H](O[C@@H]2O[C@H](C)[C@@H](O[C@H]3C[C@@](C)(O)[C@@H](O)[C@H](C)O3)[C@H](N(C)C)[C@H]2O)[C@@H](CC=O)C[C@@H](C)[C@@H](O[C@@H]2CC[C@H](N(C)C)[C@@H](C)O2)C=CC=CC[C@@H](C)OC(=O)C[C@H]1OC(C)=O	5
CC(C)C[C@H](NC(=O)[C@@H](Cc1ccc2ccccc2c1)NC(=O)[C@H](Cc1ccc(O)cc1)NC(=O)[C@H](CO)NC(=O)[C@H](Cc1c[nH]c2ccccc12)NC(=O)[C@H](Cc1cnc[nH]1)NC(=O)[C@@H]1CCC(=O)N1)C(=O)N[C@@H](CCCN=C(N)N)C(=O)N1CCC[C@H]1C(=O)NCC(N)=O	3
O=C(C=Cc1ccccc1)NCCO	5
COC(=O)C(C)(C)C(=O)OC1=C(C(=O)Nc2ccccn2)N(C)S(=O)(=O)c2cc(Cl)sc21	2
C=CCSc1nc2ccc(Cc3ccccc3)cc2[nH]1	5
C/C=C(\C)C(=O)OC/C=C(\C)CCC=C(C)C	5

Compound	GHS category
COC(F)(F)C(C(F)(F)F)C(F)(F)F	3
COC(=O)c1ccc2cc(C(=O)OC)ccc2c1	5
C#CCOc1ccc(CCNC(=O)C(OCC#C)c2ccc(Cl)cc2)cc1OC (centres undefined)	5
OC1CCOC1 (centres undefined)	5
O=C(NCC(O)CCl)c1ccc([N+](=O)[O-])cc1 (centres undefined)	3
O=C(O)[C@H](O)[C@H](O)[C@@H](O)[C@H](O)[C@H](O)CO	5
C=CCCCCCCCCC(=O)NCC(=O)O	5
CC(C=O)C(=O)c1ccc(C2CCCCC2)cc1 (centres undefined)	4
CSc1nc2cc(Cl)c(Oc3cccc(Cl)c3Cl)cc2[nH]1	5
O=C1CCc2cc(OCCCCc3nnnn3C3CCCCC3)ccc2N1	5
C#CCN1C(=O)COc2cc(F)c(N3C(=O)C4=C(CCCC4)C3=O)cc21	5
CCCCCCCCCCCC(=O)OCC(C)(C)C=NCC1(C)CC(N=CC(C)(C)COC(=O)CCCCCCCCCCC)CC(C)(C)C1 (centres undefined)	5
CC(C)(c1ccccc1)c1ccc(Nc2ccc(C(C)(C)c3ccccc3)cc2)cc1	5
CCOC(=O)C(F)(F)F	5
CCCC(=O)c1ccc(N)c(O)c1	5
CCC(C)(C)NC(=O)c1cnc2cccc(C)n2c1=O	3
CCCCCCCC(=O)OCCCCCC	5
CC(CC(C)(C)C)CC(C)(C)C	5
CCC(=O)OC1C=CC2C3CCC(C3)C12 (centres undefined)	5
CCCCCCC1CCCC1=O (centres undefined)	5
N#CCN(CC#N)CC#N	3
OC[C@H]1NC[C@H](O)[C@@H](O)[C@@H]1O	5
